Tests used:
Format in all cases: functional, cell-based
HL-60(TB) = assay: Antiproliferative activity against human HL-60(TB) cells measured after 48 hrs by SRB assay
K562 = assay: Antiproliferative activity against human K562 cells measured after 48 hrs by SRB assay
MOLT-4 = assay: Antiproliferative activity against human MOLT-4 cells measured after 48 hrs by SRB assay
SR = assay: Antiproliferative activity against human SR cells measured after 48 hrs by SRB assay
A549 = assay: Antiproliferative activity against human A549 cells measured after 48 hrs by SRB assay
EKVX = assay: Antiproliferative activity against human EKVX cells measured after 48 hrs by SRB assay
HOP-62 = assay: Antiproliferative activity against human HOP-62 cells measured after 48 hrs by SRB assay
HOP-92 = assay: Antiproliferative activity against human HOP-92 cells measured after 48 hrs by SRB assay
NCI-H23 = assay: Antiproliferative activity against human NCI-H23 cells measured after 48 hrs by SRB assay
NCI-H460 = assay: Antiproliferative activity against human NCI-H460 cells measured after 48 hrs by SRB assay
COLO 205 = assay: Antiproliferative activity against human COLO 205 cells measured after 48 hrs by SRB assay
HT-29 = assay: Antiproliferative activity against human HT-29 cells measured after 48 hrs by SRB assay
SW-620 = assay: Antiproliferative activity against human SW-620 cells measured after 48 hrs by SRB assay
SF-268 = assay: Antiproliferative activity against human SF-268 cells measured after 48 hrs by SRB assay
SF-295 = assay: Antiproliferative activity against human SF-295 cells measured after 48 hrs by SRB assay
SF-539 = assay: Antiproliferative activity against human SF-539 cells measured after 48 hrs by SRB assay
SNB-19 = assay: Antiproliferative activity against human SNB-19 cells measured after 48 hrs by SRB assay
U-251 = assay: Antiproliferative activity against human U-251 cells measured after 48 hrs by SRB assay
Malme-3M = assay: Antiproliferative activity against human Malme-3M cells measured after 48 hrs by SRB assay
M14 = assay: Antiproliferative activity against human M14 cells measured after 48 hrs by SRB assay
SK-MEL-2 = assay: Antiproliferative activity against human SK-MEL-2 cells measured after 48 hrs by SRB assay
SK-MEL-5 = assay: Antiproliferative activity against human SK-MEL-5 cells measured after 48 hrs by SRB assay
UACC-257 = assay: Antiproliferative activity against human UACC-257 cells measured after 48 hrs by SRB assay
UACC-62 = assay: Antiproliferative activity against human UACC-62 cells measured after 48 hrs by SRB assay
IGROV-1 = assay: Antiproliferative activity against human IGROV-1 cells measured after 48 hrs by SRB assay
OVCAR-3 = assay: Antiproliferative activity against human OVCAR-3 cells measured after 48 hrs by SRB assay
OVCAR-4 = assay: Antiproliferative activity against human OVCAR-4 cells measured after 48 hrs by SRB assay
OVCAR-8 = assay: Antiproliferative activity against human OVCAR-8 cells measured after 48 hrs by SRB assay
SK-OV-3 = assay: Antiproliferative activity against human SK-OV-3 cells measured after 48 hrs by SRB assay
786-0 = assay: Antiproliferative activity against human 786-0 cells measured after 48 hrs by SRB assay
A498 = assay: Antiproliferative activity against human A498 cells measured after 48 hrs by SRB assay
CAKI-1 = assay: Antiproliferative activity against human CAKI-1 cells measured after 48 hrs by SRB assay
RXF 393 = assay: Antiproliferative activity against human RXF 393 cells measured after 48 hrs by SRB assay
SN12C = assay: Antiproliferative activity against human SN12C cells measured after 48 hrs by SRB assay
PC-3 = assay: Antiproliferative activity against human PC-3 cells measured after 48 hrs by SRB assay
MCF7 = assay: Antiproliferative activity against human MCF7 cells measured after 48 hrs by SRB assay
Hs-578T = assay: Antiproliferative activity against human Hs-578T cells measured after 48 hrs by SRB assay
MDA-MB-468 = assay: Antiproliferative activity against human MDA-MB-468 cells measured after 48 hrs by SRB assay
WI-38 = assay: Antiproliferative activity against human WI-38 cells measured by MTT assay

`O=C(NCCCNc1cc(-c2cn(-c3ccccc3)nc2-c2cccc(O)c2)ccn1)Nc1ccc(F)cc1` gave an IC50 (HL-60(TB); HL-60, 48 h) of 2.15 µM, a TGI (HL-60(TB); HL-60, time 48 hrs) of 14.2 µM and an IC50 (K562; K562, 48 h) of 0.81 µM. For the same compound, the TGI (K562; K562, time 48 hrs) was > 14.2 µM, the IC50 (MOLT-4; MOLT-4, 48 h) was 1.25 µM and the TGI (MOLT-4; MOLT-4, time 48 hrs) was 15.6 µM. For the same compound, the IC50 (SR; 48 h) was 1.51 µM, the TGI (SR; time 48 hrs) was 13.8 µM and the IC50 (A549; A549, 48 h) was 3.12 µM. For the same compound, the TGI (A549; A549, time 48 hrs) was > 21.7 µM, the IC50 (EKVX; 48 h) was 2.74 µM and the TGI (EKVX; time 48 hrs) was 9.51 µM. The IC50 (HOP-62; HOP-62, 48 h) was 3.24 µM, the TGI (HOP-62; HOP-62, time 48 hrs) was 9.26 µM and the IC50 (HOP-92; HOP-92, 48 h) was 0.86 µM. It also gave a TGI (HOP-92; HOP-92, time 48 hrs) of 4.97 µM, an IC50 (NCI-H23; NCI-H23, 48 h) of 3.11 µM and a TGI (NCI-H23; NCI-H23, time 48 hrs) of 7.65 µM. For the same compound, the IC50 (NCI-H460; NCI-H460, 48 h) was 2.35 µM, the TGI (NCI-H460; NCI-H460, time 48 hrs) was 5.88 µM and the IC50 (COLO 205; COLO 205, 48 h) was 2.34 µM. The TGI (COLO 205; COLO 205, time 48 hrs) was 6.28 µM, the IC50 (HT-29; HT-29, 48 h) was 1.09 µM and the TGI (HT-29; HT-29, time 48 hrs) was 4.99 µM. It also gave an IC50 (SW-620; SW-620, 48 h) of 3.04 µM, a TGI (SW-620; SW-620, time 48 hrs) of 6.73 µM and an IC50 (SF-268; SF-268, 48 h) of 2.61 µM. It also gave a TGI (SF-268; SF-268, time 48 hrs) of 11.2 µM, an IC50 (SF-295; SF-295, 48 h) of 1.38 µM and a TGI (SF-295; SF-295, time 48 hrs) of 4.84 µM. It also gave an IC50 (SF-539; SF-539, 48 h) of 1.98 µM, a TGI (SF-539; SF-539, time 48 hrs) of 5.38 µM and an IC50 (SNB-19; SNB-19, 48 h) of 3.29 µM. The TGI (SNB-19; SNB-19, time 48 hrs) was 9.75 µM, the IC50 (U-251; U-251, 48 h) was 2.05 µM and the TGI (U-251; U-251, time 48 hrs) was 7.55 µM. It also gave an IC50 (Malme-3M; 48 h) of 0.83 µM, a TGI (Malme-3M; time 48 hrs) of 3.42 µM and an IC50 (M14; M14, 48 h) of 1.57 µM. The TGI (M14; M14, time 48 hrs) was 5.85 µM, the IC50 (SK-MEL-2; SK-MEL-2, 48 h) was 4 µM and the TGI (SK-MEL-2; SK-MEL-2, time 48 hrs) was 10.1 µM. The IC50 (SK-MEL-5; SK-MEL-5, 48 h) was 1.64 µM, the TGI (SK-MEL-5; SK-MEL-5, time 48 hrs) was 4.83 µM and the IC50 (UACC-257; UACC-257, 48 h) was 3.07 µM. It also gave a TGI (UACC-257; UACC-257, time 48 hrs) of 7.54 µM, an IC50 (UACC-62; UACC-62, 48 h) of 3.14 µM and a TGI (UACC-62; UACC-62, time 48 hrs) of 6.6 µM. It also gave an IC50 (IGROV-1; IGROV-1, 48 h) of 1.23 µM, a TGI (IGROV-1; IGROV-1, time 48 hrs) of 5.82 µM and an IC50 (OVCAR-3; OVCAR-3, 48 h) of 2.16 µM. The TGI (OVCAR-3; OVCAR-3, time 48 hrs) was 8.69 µM, the IC50 (OVCAR-4; OVCAR-4, 48 h) was 1.46 µM and the TGI (OVCAR-4; OVCAR-4, time 48 hrs) was 8.21 µM. It also gave an IC50 (OVCAR-8; OVCAR-8, 48 h) of 2.13 µM, a TGI (OVCAR-8; OVCAR-8, time 48 hrs) of 9.26 µM and an IC50 (SK-OV-3; SK-OV-3, 48 h) of 3.12 µM. For the same compound, the TGI (SK-OV-3; SK-OV-3, time 48 hrs) was 10.8 µM, the IC50 (786-0; 786-0, 48 h) was 0.86 µM and the TGI (786-0; 786-0, time 48 hrs) was 3.61 µM. It also gave an IC50 (A498; A498, 48 h) of 1.21 µM, a TGI (A498; A498, time 48 hrs) of 4.96 µM and an IC50 (CAKI-1; CAKI-1, 48 h) of 2.04 µM. For the same compound, the TGI (CAKI-1; CAKI-1, time 48 hrs) was 10.7 µM, the IC50 (RXF 393; RXF 393, 48 h) was 0.97 µM and the TGI (RXF 393; RXF 393, time 48 hrs) was 4.85 µM. The IC50 (SN12C; 48 h) was 2.79 µM, the TGI (SN12C; time 48 hrs) was 8.37 µM and the IC50 (PC-3; PC-3, 48 h) was 1.33 µM. It also gave a TGI (PC-3; PC-3, time 48 hrs) of 8.92 µM, an IC50 (MCF7; MCF7, 48 h) of 2.32 µM and a TGI (MCF7; MCF7, time 48 hrs) of 6.04 µM. For the same compound, the IC50 (Hs-578T; 48 h) was 0.98 µM, the TGI (Hs-578T; time 48 hrs) was 5.31 µM and the IC50 (MDA-MB-468; MDA-MB-468, 48 h) was 1.18 µM. For the same compound, the TGI (MDA-MB-468; MDA-MB-468, time 48 hrs) was 4.66 µM and the IC50 (WI-38) was 16.8 µM.

Reference: ChEMBL document CHEMBL5113453, “Design, synthesis, and biological evaluation of a new series of pyrazole derivatives: Discovery of potent and selective JNK3 kinase inhibitors” (Bioorg Med Chem, 2022)
